This assay concerns Human epidermal melanocytes from dark-pigmented skin. Briefly: Melanin content in human epidermal melanocytes after 8 days of incubation (absorbance at 405 nm). It counts as cell-based. Conditions: for % Pigmentation (percent change of melanin absorbance relative to vehicle control): 8 days of incubation; for Effect on pigmentation, in words: at the concentrations of Table 1. On the procedure: The Compound of Formula (II) was examined for its ability to reduce pigmentation in vitro in human melanocytes. Human epidermal melanocytes from dark-pigmented skin were seeded in 6-well dishes and grown using commercially available Medium 254, a sterile, liquid medium prepared with 200 μM calcium chloride for the culture of human epidermal melanocytes, supplemented with 1% Penicillin/Streptomycin and 1% Human Melanocyte Growth Supplement. Corresponding controls were maintained without histamine, Diphenylhydramine HCl and Compound II. Four replicates were tested for each combination. After 8 days of incubation, melanin was collected and processed by washing the wells with 1× phosphate-buffered saline (PBS), followed by addition of 200 μL of 2M NaOH to three of the four replicates, which are then scraped, pooled and boiled at 80° C. for an hour. Melanin absorption was then measured at 405 nm using a spectrophotometer.
A larger (positive or negative) percent change indicates a larger increase or reduction in melanin.

On to `NC(=O)COc1ccc(C(=O)NCc2ccc(CN3CCCCC3)cc2)cc1` [Compound (II)], for which the “Effect on pigmentation, in words” value is listed as “effective to reduce pigmentation”. Besides, under “0.0001%”, the “% Pigmentation (percent change of melanin absorbance relative to vehicle control)” value is recorded as −28.30%. The “% Pigmentation (percent change of melanin absorbance relative to vehicle control)” value (0.001%) is −75.25%.

For the compound `NCCc1c[nH]cn1` [Histamine, reference compound], the “Effect on pigmentation, in words” value is reported as “significant increase in pigmentation”. For the same compound, under “5 μM”, the “% Pigmentation (percent change of melanin absorbance relative to vehicle control)” value was 58.75%.

The record behind these values is patent US20160263005A1, “TOPICAL COMPOSITIONS AND METHODS FOR SKIN LIGHTENING” (AVON PRODUCTS, INC., priority 2014, published 2016).
